# Laboratory results as given in patent publication US20150209315A1 (Cumberland Pharmaceuticals, priority 2009, published 2015).
# Key:
# Type in all cases: in vivo, human
# [1] = system: post-operative adult patients; test: Example 2: patient self-assessment of pain, VAS at rest; conditions: 800 mg
# [2] = system: patients undergoing orthopedic surgical procedures; test: Example 3: pain with movement measured with VAS; conditions: 800 mg, immediately post-surgery
# Description: Efficacy was measured by comparing the reduction in morphine use over the 24 hours immediately post surgery. Efficacy was measured by reduction in the requirement for the narcotic analgesic, morphine, in the 24 hours post surgery.
# The Clinical Trial Material (“CTM”) was mixed in 250 mL normal saline. Saline was chosen as the control group (placebo) for this study, to ensure blinding and allow for analysis of treatment effect.
# The study participants were randomized based on criteria for an efficacy evaluable population (EEP) versus an intent to treat population (ITT).
# Eligible patients were randomized to one of the two treatment groups.
# Patients were evaluated and compared for morphine requirements between the active doses and placebo using analysis of variance and covariance procedures at an overall alpha level of 0.05. Secondary efficacy parameters were also evaluated and compared among the treatment groups using appropriate statistical methods described in the statistical analysis section of the protocol. For the adverse events, instead of using an unadjusted Chi-square test and a Cochran-Mantel-Haenszel test adjusted for center to compare treatment groups with respect to the numbers of patients reporting AEs, a Fisher's exact test was used to compare treatment groups for any AE that was reported by five or more patients.
# [3] = system: post-operative adult patients; test: Example 1: adverse events and safety labs
# Description: Patients were evaluated and compared for morphine requirements between the active doses and placebo using analysis of variance and covariance procedures at an overall alpha level of 0.05. Secondary efficacy parameters were also evaluated and compared among the treatment groups using appropriate statistical methods described in the statistical analysis section of the protocol. Safety information was compared between the treatment groups using Chi-Square or Cochran-Mantel-Haenszel test. Demographic, background and baseline information among the treatment groups was also described.
smiles,measurement,setting,value
"CC(C)Cc1ccc(C(C)C(=O)O)cc1 (stereo not drawn) [Ibuprofen, 2-(4-isobutylphenyl) propionic acid]",VAS Score measured at Rest (median),"[1]; EEP, 1-Hour",8.0
same,"VAS Score measured at Rest, % Reduction vs Placebo","[1]; EEP, 1-Hour",0.0%
same,VAS Score measured at Rest (median),"[1]; EEP, 3-Hour",5.0
same,"VAS Score measured at Rest, % Reduction vs Placebo","[1]; EEP, 3-Hour",16.7%
same,VAS Score measured at Rest (median),"[1]; EEP, 6-Hour",4.0
same,"VAS Score measured at Rest, % Reduction vs Placebo","[1]; EEP, 6-Hour",20.0%
same,VAS Score measured at Rest (median),"[1]; EEP, 9-Hour",3.0
same,VAS Score measured at Rest (median),"[1]; EEP, 12-Hour",2.5
same,"VAS Score measured at Rest, % Reduction vs Placebo","[1]; EEP, 12-Hour",16.7%
same,VAS Score measured at Rest (median),"[1]; EEP, 15-Hour",2.0
same,"VAS Score measured at Rest, % Reduction vs Placebo","[1]; EEP, 15-Hour",33.3%
same,VAS Score measured at Rest (median),"[1]; EEP, 18-Hour",2.0
same,"VAS Score measured at Rest, % Reduction vs Placebo","[1]; EEP, 18-Hour",33.3%
same,VAS Score measured at Rest (median),"[1]; EEP, 21-Hour",1.0
same,"VAS Score measured at Rest, % Reduction vs Placebo","[1]; EEP, 21-Hour",66.7%
same,VAS Score measured at Rest (median),"[1]; EEP, 24-Hour",2.0
same,"VAS Score measured at Rest, % Reduction vs Placebo","[1]; EEP, 24-Hour",33.3%
same,VAS Score measured at Rest (median),"[1]; ITT, 1-Hour",8.0
same,"VAS Score measured at Rest, % Reduction vs Placebo","[1]; ITT, 1-Hour",0.0%
same,VAS Score measured at Rest (median),"[1]; ITT, 3-Hour",5.7
same,"VAS Score measured at Rest, % Reduction vs Placebo","[1]; ITT, 3-Hour",5.0%
same,VAS Score measured at Rest (median),"[1]; ITT, 6-Hour",4.0
same,"VAS Score measured at Rest, % Reduction vs Placebo","[1]; ITT, 6-Hour",11.1%
same,VAS Score measured at Rest (median),"[1]; ITT, 9-Hour",3.0
same,VAS Score measured at Rest (median),"[1]; ITT, 12-Hour",2.7
same,"VAS Score measured at Rest, % Reduction vs Placebo","[1]; ITT, 12-Hour",20.6%
same,VAS Score measured at Rest (median),"[1]; ITT, 15-Hour",2.0
same,"VAS Score measured at Rest, % Reduction vs Placebo","[1]; ITT, 15-Hour",31.0%
same,VAS Score measured at Rest (median),"[1]; ITT, 18-Hour",2.0
same,"VAS Score measured at Rest, % Reduction vs Placebo","[1]; ITT, 18-Hour",31.0%
same,VAS Score measured at Rest (median),"[1]; ITT, 21-Hour",2.0
same,"VAS Score measured at Rest, % Reduction vs Placebo","[1]; ITT, 21-Hour",33.3%
same,VAS Score measured at Rest (median),"[1]; ITT, 24-Hour",2.0
same,"VAS Score measured at Rest, % Reduction vs Placebo","[1]; ITT, 24-Hour",31.0%
same,decrease in the mean VAS with movement,[2]; AT,13.9%
same,decrease in the mean VAS with movement,[2]; efficacy evaluable,13.6%
same,decrease in the mean VAS with movement,[2]; intent-to-treat,14.3%
same,patients experiencing nausea vs placebo,[3]; 400 mg,significant reduction
same,bleeding or renal complications,[3]; 400 mg and 800 mg,no additional bleeding or renal complications
same,patients experiencing serious adverse events vs placebo,[3]; 400 mg and 800 mg,no significant differences in the number of patients experiencing serious adverse events between groups
same,Dizziness vs placebo,[3]; 800 mg,experienced more often
same,patients experiencing diarrhea vs morphine only (placebo),[3]; 800 mg,significant reduction
same,patients experiencing nausea vs placebo,[3]; 800 mg,trending toward significance
same,patient deaths,[3]; 14 day study,no patient deaths
same,patients experiencing gastrointestinal disorders and fever vs morphine only (placebo),[3]; both 400 mg and 800 mg,significant reduction
